Data taken from patent publication EP3290412A1, “HIV-1 NUCLEOCAPSID INHIBITORS” (Università degli Studi di Siena, priority 2016, dated 2018).
Marks after values point to notes of the source that are not given here.

Columns and labels:
[1] = tested on: NIH Catalogue Number: 7401; conditions: cited from earlier work; for Level of resistance: NRTI resistant strain 7401; for Fold change: strain 7401, resistant virus IC50 to wild-type reference virus IC50 ratio, cut-off in brackets
[2] = tested on: NIH Catalogue Number: 7400; conditions: cited from earlier work; for Level of resistance: NRTI resistant strain 7400; for Fold change: strain 7400, resistant virus IC50 to wild-type reference virus IC50 ratio, cut-off in brackets
NC(11-55) = NC(11-55) (Human immunodeficiency virus type 1, UniProt P12493); assay: NC inhibition assay (NC-induced cTAR DNA destabilization, fluorescence); format: biochemical, HIV-1; conditions: for IC50: cTAR DNA 0.1 µM, 1 µM NC(11-55), 20 °C, pH 7.5, read-out: NC inhibition IC50; for inhibition at 100 µM: single point screening, positive = >25% inhibition at 100µM
Source text: The NC inhibition assay is based on the nucleic acid chaperone activity of the NC protein. NC destabilizes the secondary structure of cTAR DNA, the complementary sequence of the transactivation response element, which is involved in minus-strand DNA transfer during reverse transcription. In the assay, the cTAR sequence from the HIV-1 Mal strain (Bernacchi et al, J Mol Biol, 2002) is labeled with a dye (Alexa488 fluorophore) and a quencher 4-(4'-dimethylaminophenylazo)benzoic acid (Dabcyl) at its 5' and 3' ends, respectively. In the absence of destabilization, the close proximity of both cTAR ends results in a strong fluorescence quenching of the dye emission by the Dabcyl group. NC(11-55) added to cTAR at a ratio of 10 NC/cTAR melts the bottom of the cTAR stem, which increases the distance between the dye and the quencher and as a result increases the dye fluorescence signal [Shvadchak et al, (2009) Identification by high throughput screening of small compounds inhibiting the nucleic acid destabilization activity of the HIV-1 nucleocapsid protein. Biochimie, 916-923]. NCIs are expected to prevent the NC-induced destabilization of cTAR and thus reverse the NC-induced increase in the fluorescence of the labeled cTAR. The activity of the inhibitor is thus evaluated from the ratio of the fluorescence intensity observed in the presence of NC with the molecule to the one in the absence of the compound.
The doubly labelled cTAR DNA oligonucleotides (55nt) were synthesised and purified by IBA GmbH Nucleic Acids Product Supply (Göttingen, Germany). Extinction coefficient at 260 nm of 5.73 x 10^5 M^-1 cm^-1 was used to determine the concentration of cTAR.
The NC(11-55) peptide (Avilov et al, Antimicrob Agents Chemother, 2012) was synthesized by solid-phase peptide synthesis on a 433A synthesizer (ABI, Foster City, CA) as previously described [De Rocquigny H, (1991) First large scale chemical synthesis of the 72 amino acid HIV-1 nucleocapsid protein NCp7 in an active form. Biochem Biophys Res Commun., 1010-1018]. The peptide was stored lyophilized and was resuspended in water before use. The concentration of peptide was determined by using an extinction coefficient of 5.7 x 10^3 M^-1 cm^-1 at 280 nm. Next, 2.5 molar equivalents of ZnSO4 were added and pH was raised to its final value by adding buffer.
All experiments were performed at 20 °C in 25 mM Tris-HCl (pH 7.5), 30 mM NaCl, and 0.2 mM MgCl2. To evaluate the inhibition activity of compounds on NC-induced cTAR destabilization, cTAR DNA (0.1 µM) was preincubated with 1 µM NC(11-55) (molar ratio NC:cTAR = 10:1) for 15 min at room temperature before addition of compound. For single point screening, all compounds were tested at three final concentrations: 1 µM, 10 µM and 100 µM. For the IC50 determination, inhibition of NC-induced cTAR melting was monitored through addition of increasing concentrations of the selected molecules to the pre-formed NC(11-55)-cTAR complex. After the addition of compound, the mixture was incubated for 15 min at room temperature before the reading. The fluorescence signal was recorded with a plate reader Xenius (SAFAS Monaco) or Fluoromax 3 spectrofluorometer (Horiba Jobin-Yvon), and the excitation and emission wavelengths were 480 and 520 nm, respectively. The spectra were corrected for dilution, buffer fluorescence and screening effect (when it was required). In order to check the occurrence of aggregation, we performed additional reading of absorption with the plate reader Xenius (SAFAS Monaco) or Cary 4000 spectrophotometer (Agilent). […]

[3] = molecular target: T1, full length (1-55) HIV-1 NCp7 (Human immunodeficiency virus type 1 group M subtype B, UniProt P12493); assay: Electromobility Shift Assay (EMSA), competition for ssDNA binding; conditions: NCp7 300 nM, M13mp18 ssDNA; positive = >25% inhibition at 100µM
T1 construct: recombinant full length (1-55) HIV-1 NCp7 proteins; made in house
Source text: The assay used a recombinant full length (1-55) HIV-1 NCp7 proteins based on the NL4-3 sequence (GenBank accession number AF324493). The protein was expressed and purified as described in [Carteau, S., Gorelick, R. J. & Bushman, F. D. Coupled integration of human immunodeficiency virus type 1 cDNA ends by purified integrase in vitro: stimulation by the viral nucleocapsid protein. Journal of virology 73, 6670-6679 (1999)].
Competition for single-stranded (ss) DNA binding was realized by mixing 1 µL of serial dilutions of NC inhibitors (diluted in DMSO) with 44 µL of NCp7 (300 nM) in a reaction buffer (20 mM Tris-HCl pH 7.4, 2 mM MgCl2, 100 mM NaCl, 1 mM DTT). 5 µL of a 10 ng/µL (4 nM) solution of M13mp18 ssDNA (BayouBiolabs) were then added and the tubes were incubated for 25 minutes at 37 °C. The reaction was terminated by chilling the tubes on ice followed by the addition of 5 µL of a loading buffer (30% glycerol, 0.01% xylene cyanol, 10 mM Tris-HCl pH 7.4). Samples were then resolved on 25 cm-long, 1% (w/v) agarose gels (SeaKem LE Agarose, Lonza) in 0.5x TBE. Gels were run in a Sub-Cell GT cuvette (BioRad) for 18 h at room temperature at 3 V/cm, stained with SybrGold (Molecular Probes) and scanned for fluorescence using a Typhoon 8600 (GE Healthcare). The experiments were performed in triplicate. Competition efficiency was realized by measuring the relative distance in pixels between the unbound ssDNA control, the NCp7-bound ssDNA control and the bound ssDNA for each points of the titration with the ImageQuant software. The IC50 was estimated as the NC inhibitors concentrations for which the bound ssDNA migrated at 50% of the distance separating the bound from the unbound ssDNA.

[4] = tested on: HIV-1 reference strain NL4-3; assay: MonoCycle assay (TZM-bl cells); format: cell-based; conditions: Human immunodeficiency virus 1, NL43, TZM-bl, 48 h, read-out: Mono Cycle IC50 nM
Protocol: MonoCycle assay is a cell based assay allowing the evaluation of antiviral activity of HIV-1 inhibitors targeting the early steps of HIV-1 life cycle such as entry, uncoating of viral particles, reverse transcription and integration. The assay consists in the infection of TZM-bl cells (20,000/well) with the HIV-1 reference strain NL4-3 in presence of serial five-fold dilutions of the investigational inhibitors. After 48 hours, cells were lysed adding 40 µl of Glo Lysis Buffer (Promega) to each well for 5 minutes, then 40 µl of Brighy-Glo Luciferase Reagent (Promega) were added to each well for relative luminescence units (RLU) counting using Glo-Max Multi Detection System (Promega). RLU values from each well were elaborated using the GraphPad v5.0 software to calculate the IC50 of each compound.

[5] = tested on: HIV-1 reference strain NL4-3; assay: BiCycle assay (MT-2 then TZM-bl cells); format: cell-based; conditions: Human immunodeficiency virus 1, NL43, TZM-bl, read-out: BiCycle IC50 nM
Protocol: BiCycle Assay is cell based assay allowing the evaluation of the antiviral activity of HIV-1 inhibitors on the whole replication cycle of HIV-1. The assay consists in a first round of infection of the T-cell line MT-2 followed by infection of TZM-bl cells. MT-2 cells were seeded at a concentration of 50,000 cells/well in a 96-well plate and infected with the HIV-1 reference strain NL4-3 in presence of five-fold dilutions of the investigational compounds. After 72 hours, 50 µl of supernatant from each well, containing the virus produced in the first round of infection, were used to infect TZM-bl cells seeded in a 96-plate well at a concentration of 30,000 cells/well. Two days later, cells were lysed adding 40 µl of Glo Lysis Buffer (Promega) to each well for 5 minutes, then 40 µl of Brighy-Glo Luciferase Reagent (Promega) were added to each well for relative luminescence units (RLU) counting using Glo-Max Multi Detection System (Promega). RLU values from each well were elaborated using the GraphPad v5.0 software to calculate the IC50 of each compound.

[6] = tested on: NIH Catalogue Number: 12231; conditions: cited from earlier work; for Level of resistance: NNRTI resistant strain 12231; for Fold change: strain 12231, resistant virus IC50 to wild-type reference virus IC50 ratio, cut-off in brackets
[7] = tested on: NIH Catalogue Number: 12229; conditions: cited from earlier work; for Level of resistance: NNRTI resistant strain 12229; for Fold change: strain 12229, resistant virus IC50 to wild-type reference virus IC50 ratio, cut-off in brackets
[8] = tested on: NIH Catalogue Number: 11808; conditions: cited from earlier work; for Level of resistance: PI resistant strain 11808; for Fold change: strain 11808, resistant virus IC50 to wild-type reference virus IC50 ratio, cut-off in brackets
[9] = tested on: NIH Catalogue Number: 12465; conditions: cited from earlier work; for Level of resistance: PI resistant strain 12465; for Fold change: strain 12465, resistant virus IC50 to wild-type reference virus IC50 ratio, cut-off in brackets

Nc1nc(=O)n([C@@H]2CS[C@H](CO)O2)cc1F [Emtricitabine]
Level of resistance [1]: High resistance
Fold change [1]: >200 (3.5^c)
Level of resistance [2]: High resistance
Fold change [2]: >200 (3.5^c)

Nc1nc(NC2CC2)c2ncn([C@H]3C=C[C@@H](CO)C3)c2n1 [Abacavir]
Level of resistance [1]: High resistance
Fold change [1]: 7.4 (4.5^c)
Level of resistance [2]: High resistance
Fold change [2]: 7.7 (4.5^c)

O=C(c1nc(-c2ccccn2)nc(O)c1O)N1CCC(c2ccccc2)CC1 [Compound 9, (5,6-dihydroxy-2-(pyridin-2-yl)pyrimidin-4-yl)(4-phenylpiperidin-1-yl)methanone]
IC50 (NC(11-55)): 128 µM
inhibition at 100 µM (NC(11-55)): > 25%
EMSA screening results [3]: Negative
IC50 [4]: 32900 nM
IC50 [5]: 2000 nM

Cc1cc(C#N)cc(C)c1Oc1nc(Nc2ccc(C#N)cc2)nc(N)c1Br [Etravirine]
Level of resistance [6]: High resistance
Fold change [6]: 8.8 (2.9^c)
Level of resistance [7]: High resistance
Fold change [7]: 6.8 (2.9^c)

Cc1cccc(C)c1OCC(=O)N[C@@H](Cc1ccccc1)[C@@H](O)C[C@H](Cc1ccccc1)NC(=O)[C@H](C(C)C)N1CCCNC1=O [Lopinavir]
Level of resistance [8]: High resistance
Fold change [8]: 70 (10^c)
Level of resistance [9]: Intermediate resistance
Fold change [9]: 36 (10^c)

CC(C)CN(C[C@@H](O)[C@H](Cc1ccccc1)NC(=O)O[C@H]1CO[C@H]2OCC[C@H]21)S(=O)(=O)c1ccc(N)cc1 [Darunavir]
Level of resistance [8]: High resistance
Fold change [8]: 127 (10^c)
Level of resistance [9]: Susceptible
Fold change [9]: 5.2 (10^c)

Cc1cn([C@H]2C[C@H](N=[N+]=[N-])[C@@H](CO)O2)c(=O)[nH]c1=O [Zidovudine]
Level of resistance [1]: High resistance
Fold change [1]: 24 (1.9^b)
Level of resistance [2]: High resistance
Fold change [2]: 61 (1.9^b)

COC(=O)N[C@H](C(=O)N[C@@H](Cc1ccccc1)[C@@H](O)CN(Cc1ccc(-c2ccccn2)cc1)NC(=O)[C@@H](NC(=O)OC)C(C)(C)C)C(C)(C)C [Atazanavir]
Level of resistance [8]: High resistance
Fold change [8]: 90 (2.2^c)
Level of resistance [9]: High resistance
Fold change [9]: 110 (2.2^c)

Cc1ccnc2c1NC(=O)c1cccnc1N2C1CC1 [Nevirapine]
Level of resistance [6]: High resistance
Fold change [6]: >200 (4.5^b)
Level of resistance [7]: High resistance
Fold change [7]: >200 (4.5^b)

C[C@@H](NC(=O)c1nc(-c2nccc3[nH]ccc23)nc(O)c1O)C1CCCCC1 [Compound 85, (R)-N-(1-cyclohexylethyl)-5,6-dihydroxy-2-(1H pyrrolo[3,2-c]pyridin-4-yl)pyrimidine-4-carboxamide]
IC50 (NC(11-55)): 11.5 µM
inhibition at 100 µM (NC(11-55)): > 25%
EMSA screening results [3]: Positive (A compound showing >25% inhibition when tested at 100µM concentration is considered as "positive")
IC50 [4]: > 50000 nM
IC50 [5]: 2670 nM

C[C@H](Cn1cnc2c(N)ncnc21)OCP(=O)(O)O [Tenofovir]
Level of resistance [1]: High resistance
Fold change [1]: 1.5 (1.4^c)
Level of resistance [2]: High resistance
Fold change [2]: 2.3 (1.4^c)

O=C1Nc2ccc(Cl)cc2[C@@](C#CC2CC2)(C(F)(F)F)O1 [Efavirenz]
Level of resistance [6]: High resistance
Fold change [6]: 90 (3^b)
Level of resistance [7]: High resistance
Fold change [7]: >200 (3^b)
